System: HSV-1 KOS
Assay: Cutaneous HSV-1 infection in the SKH-1 hairless mouse model, oral administration
Assay type: in vivo
Conditions: Human alphaherpesvirus 1, Group 1 Table 1 entries, tid for five days, commencing three hours post infection, in 0.03 N aqueous HCl, read-out: ED50, reduction of viral pathology
Experimental: In addition to the above results, certain Group 1 compounds have been tested against cutaneous HSV-1 infection in the SKH-1 hairless mouse model (P. H. Lee et al., supra). In this instance, viral pathology was monitored using a subjective scoring system and infection was initiated by spreading a viral inoculum (HSV-1 KOS, 7.3×10^7 PFU) over punctured skin.
Still furthermore, oral doses of Entry No.29 of Group 1 at 50 mg/kg/day and 100 mg/kg/day were active in the preceding mouse model when treatment was initiated at 65 h post inoculation. Also, topical treatment of cutaneous HSV-2 infections, namely HG-52 or the acyclovir resistant HSV-2 strain VK-1 (C. S. Crumpacker, New Engl. J. Med., 1989, 320, 293) infections, in the mouse model with the above noted 3% w/w formulation of Entry No. 29 was therapeutically effective, producing a 58 to 72% reduction of viral pathology.

SMILES	ED50 [mg/kg]
Nc1nc(-c2ccc(NC(=O)CN(Cc3ccccc3)C(=O)c3ccncc3)cc2)cs1 [Example 29]	56
Nc1nc(-c2ccc(NC(=O)CN(Cc3ccccc3)C(=O)C3CCCC3)cc2)cs1 [Example 36]	51
Nc1nc(-c2ccc(NC(=O)CN(Cc3ccncc3)C(=O)C3CCCCC3)cc2)cs1 [Example 49, N-{2-{{4-(2-amino-4-thiazolyl)phenyl}amino}-2-oxoethyl}-N-(4-pyridinylmethyl)cyclohexanecarboxamide]	129
C[C@@H](c1ccccc1)N(CC(=O)Nc1ccc(-c2csc(N)n2)cc1)C(=O)c1ccncc1 [Example 58]	31

— patent US6288091A, “Antiherpes virus compounds and methods for their preparation and use” (Boehringer Ingelheim Ltd., priority 1999, dated 2001)
